From ChEMBL document CHEMBL3045326, “Avocadofurans and their tetrahydrofuran analogues: comparison of growth inhibitory and insecticidal activity” (2000) come the findings set out here.

In assay [1] the test system is Spodoptera exigua. Kind of assay: Insecticidal activity against Spodoptera exigua larvae assessed as inhibition of larval growth at 5 umol/g of diet administered through compound containing diet after 7 days. In kind it is functional.
The test system of assay [2] is Spodoptera exigua. Kind of assay: Insecticidal activity against Spodoptera exigua larvae assessed as induction of larval mortality at 5 umol/g of diet administered through compound containing diet after 7 days. In kind it is functional, organism-based.
Assay [3] concerns Spodoptera exigua. Kind of assay: Insecticidal activity against older Spodoptera exigua larvae assessed per ug of diet. In kind it is functional.
For assay [4], the system named is Spodoptera exigua. Kind of assay: Insecticidal activity against young Spodoptera exigua larvae assessed per ug of diet. In kind it is functional.

Calls of active or inactive are those of the source. The calls are words filed in the database; no cut-off is given here.

Regarding `CCCCCCCCCCCCCCCC1CCCO1` (stereo not drawn) [2-PENTADECYLTETRAHYDROFURAN], in the assay on Spodoptera exigua [1], the “growth inhibition (GI)” value was 45%.
As for `CCCCCCCCCCCCCCCCCc1ccco1` [2-(HEPTADECYL)FURAN], the “growth inhibition (GI)” value with Spodoptera exigua [1] is on record as 93%. Besides, the result in the assay on Spodoptera exigua [2] was Active. The 50% lethal concentration (LC50) was > 3000 nM in the assay on Spodoptera exigua [3] and ≥ 2000 nM in the assay on Spodoptera exigua [4].
Turning to `CCCCCCCCCCCCCCCCC1CCCO1` (stereo not drawn), the “growth inhibition (GI)” value with Spodoptera exigua [1] is “inactive”.
On the same count and under the same terms, under `CCCCCCCCCCCCCCC1CCCO1` (stereo not drawn) stands “inactive”; under `CCCCCCCCCCCCCCCCCCC1CCCO1` (stereo not drawn), “Active”.
In the case of `CCCCCCCCCCCCCCCc1ccco1`, in the assay with Spodoptera exigua [1], the “growth inhibition (GI)” value was found to be 98%. The outcome in the assay with Spodoptera exigua [2] was Active. For the same compound, the LC50 is > 3000 nM with Spodoptera exigua [3] and ≥ 2000 nM in the assay with Spodoptera exigua [4].
As for `CCCCCCCCCCCCCCCCCC1CCCO1` (stereo not drawn) [2-(HEPTADECYL)TETRAHYDROFURAN], in the assay on Spodoptera exigua [1], the “growth inhibition (GI)” value is recorded as 59%.
